≈ marks a conversion by molar mass, not a printed value.

In experiment [1] the test system is Methicillin-resistant Staphylococcus aureus (MRSA). The experiment is described as follows: MIC by agar dilution, MRSA clinical isolates. It counts as cell-based. Particulars: Table 1; MRSA, 10 isolates. The source says: (§1) A panel of multiple resistance Gram-positive and Gram-negative pathogens listed in Tables 1 and 2 was used to evaluate the antimicrobial activity of marinopyrrole derivatives (Chart 1) with vancomycin as a positive control. Except for those marked with WHO, all pathogens were isolated between 2008 and 2010 in hospitals located in Beijing; Guangzhou; Sichuan, Shandong and Jiangsu Province. Determination of the minimum inhibitory concentration (MIC) was done by the guidelines of the Clinical and Laboratory Standards Institute (Clinical and Laboratory Standards Institute, Performance standards for antimicrobial susceptibility testing, seventeenth informational supplement. 2007, 27, M100-S17). The susceptibility tests of a bacterial strain to a marinopyrrole derivative were performed by an agar dilution method. Briefly, each sterile petri dish contained a final volume of 15 mL comprising 1 mL of a marinopyrrole derivative and 14 mL of Mueller-Hinton broth. The concentrations of a marinopyrrole derivative are 128, 64, 32, 16, 8, 4, 2, 1, 0.5, 0.25, 0.125, 0.06, 0.03, 0.015 and 0.008 μg/mL. The petri dish containing the broth with different concentration of antibiotics was first inoculated with 10^5 CFU/mL (Denley A400, United Kingdom) and the culture was then incubated with shaking at 35-37° C. for 18-20 h. The potency of the compound was determined and expressed as minimum inhibitory concentration (MIC) in μg/mL. The MIC was determined as the lowest concentration of antibiotic that inhibited visible bacterial growth.

The test system of experiment [2] is Methicillin-resistant Staphylococcus epidermidis (MRSE). As to the kind of experiment: MIC by agar dilution, MRSE clinical isolates. It counts as cell-based. Particulars: Table 1; MRSE, 3 isolates.
From the text: as §1
A general note: In agar dilution, organisms are placed on agar that contains the substance at set levels.

The test system of experiment [3] is Moderately vancomycin-resistant Enterococci faecium with the VanA gene (WHO-3). The experiment is described as follows: MIC by agar dilution, VRE (WHO-3). It counts as cell-based. Conditions: Table 1; VRE (WHO-3), 1 isolate.
From the text: as §1

Experiment [4] has as its system Methicillin-resistant Staphylococcus aureus with the mec A gene and PBP2a (WHO-31). The experiment is described as follows: MIC by agar dilution, MRSA (WHO-31). Conditions: Table 1; MRSA (WHO-31), 1 isolate. Type of experiment: cell-based.
From the text: as §1

Experiment [5] deals with Oxacillin-resistant Staphylococcus aureus (WHO-25). As to the kind of experiment: MIC by agar dilution, ORSA (WHO-25). Type of experiment: cell-based. Particulars: Table 1; ORSA (WHO-25), 1 isolate.
From the text: as §1

In experiment [6] the test system is Methicillin-susceptible Staphylococcus aureus (MSSA). The experiment is described as follows: MIC by agar dilution, MSSA clinical isolates. Conditions: Table 1; MSSA, 10 isolates. Type of experiment: cell-based.
From the text: as §1

Experiment [7] deals with Highly vancomycin-resistant Enterococci faecalis (VRE). The experiment is described as follows: MIC by agar dilution, highly resistant VRE. Conditions: Table 1; VRE (highly vancomycin-resistant E. faecalis), 2 isolates. It counts as cell-based.
From the text: as §1

A further experiment concerns E. coli. The experiment is described as follows: MIC by agar dilution, E. coli. Type of experiment: cell-based. Particulars: Table 1; E. coli, 4 isolates; value over three Gram-negative pathogens.
From the text: as §1

The test system of a further experiment is K. penumonia. The experiment is described as follows: MIC by agar dilution, K. penumonia. Particulars: Table 1; K. penumonia, 4 isolates; value over three Gram-negative pathogens. Type of experiment: cell-based, K. pneumonia.
From the text: as §1

For a further experiment, the system named is P. aeruginosa. As to the kind of experiment: MIC by agar dilution, P. aeruginosa. It counts as cell-based. Conditions: Table 1; P. aeruginosa, 4 isolates; value over three Gram-negative pathogens.
From the text: as §1

As for `COc1ccc(C(=O)c2[nH]c(Cl)c(Cl)c2-n2c(C(=O)c3ccc(OC)cc3)cc(Cl)c2Cl)cc1` [Compound 1f], the MIC in experiment [1], in experiment [2], in experiment [3], in [4], in experiment [5] and in experiment [6] was more than 128 µg/mL throughout. Besides, the minimal inhibitory concentration (MIC) (in experiment [7]; against E. coli; against K. penumonia; in the experiment on P. aeruginosa) was more than 128 µg/mL in each case.
Regarding `COc1ccccc1C(=O)c1[nH]c(Cl)c(Cl)c1-n1c(C(=O)c2ccccc2OC)cc(Cl)c1Cl` [Compound 1c], the minimal inhibitory concentration (MIC) (usually the smallest concentration in the dilution series that meets the test's criterion for growth inhibition) in [1] is 4 to 16 µg/mL; in experiment [2], 2 to 4 µg/mL; in experiment [3], 2 µg/mL (≈ 3.72 µM); in [4] it was 4 µg/mL (≈ 7.43 µM); in experiment [5], 8 µg/mL (≈ 14.9 µM); in [6], 4 to 16 µg/mL. Further, the MIC (in [7]; in the experiment with E. coli; against K. penumonia; in the experiment with P. aeruginosa) was more than 128 µg/mL each time.
As for `O=C(c1ccccc1F)c1[nH]c(Cl)c(Cl)c1-n1c(C(=O)c2ccccc2F)cc(Cl)c1Cl` [Compound 1g], the MIC in experiment [1], in experiment [2], in experiment [3], in experiment [4], in experiment [5] and in experiment [6] was more than 128 µg/mL each time. Further, the MIC (in experiment [7]; against E. coli; against K. penumonia; in the experiment with P. aeruginosa) was more than 128 µg/mL each time.
On to `O=C(c1cccc(F)c1)c1[nH]c(Cl)c(Cl)c1-n1c(C(=O)c2cccc(F)c2)cc(Cl)c1Cl` [Compound 1h], for which the MIC is more than 64 µg/mL in experiment [1]; 0.13 to 1 µg/mL in [2]; 4 µg/mL (≈ 7.78 µM) in experiment [3]; 4 µg/mL (≈ 7.78 µM) in experiment [4]; 4 µg/mL (≈ 7.78 µM) in [5]; 4 to 16 µg/mL in [6]. Besides, the MIC (in experiment [7]; against E. coli; against K. penumonia; against P. aeruginosa) was more than 128 µg/mL throughout.
Turning to `O=C(c1ccc(C(F)(F)F)cc1)c1[nH]c(Cl)c(Cl)c1-n1c(C(=O)c2ccc(C(F)(F)F)cc2)cc(Cl)c1Cl` [Compound 1k], the MIC in [1] is 32 to 64 µg/mL; in experiment [2], 0.03 to 4 µg/mL; in experiment [3], 8 µg/mL (≈ 13 µM); in [4] it was 8 µg/mL (≈ 13 µM); in experiment [5], 8 µg/mL (≈ 13 µM); in [6] it was 8 to 32 µg/mL. Further, the minimal inhibitory concentration (MIC) (in [7]; against E. coli; against K. penumonia; against P. aeruginosa) was more than 128 µg/mL throughout.
As for `O=C(c1ccc(F)cc1)c1[nH]c(Cl)c(Cl)c1-n1c(C(=O)c2ccc(F)cc2)cc(Cl)c1Cl` [Compound 1i], the MIC was 8 to 16 µg/mL in experiment [1]; 0.25 to 4 µg/mL in [2]; 4 µg/mL (≈ 7.78 µM) in experiment [3]; 4 µg/mL (≈ 7.78 µM) in experiment [4]; 8 µg/mL (≈ 15.6 µM) in experiment [5]; 4 to 16 µg/mL in experiment [6]. For the same molecule, the MIC (in experiment [7]; against E. coli; with K. penumonia; in the experiment on P. aeruginosa) was more than 128 µg/mL throughout.

The values are drawn from US9700044B2, “Symmetrical marinopyrrole derivatives as potential antibiotic agents” (priority 2013, dated 2017).
